Entries after “also recorded” stand apart in the source; their conditions may differ.
Legend:
[1] = test system: Mouse Oral Cancer 2 (MOC2) tumor; test: In vivo NIR-II tumor imaging, MOC2 tumor model
Text: (§1) Applicants hypothesized that intravenous administration of NIR-II dyes such as XW-03-66, has the potential to accumulate in these tumors via the EPR effect, thus enabling NIR-II image-guided intraoperative resection with improved adequate margin delineation. To test this hypothesis, two different syngeneic murine models of head and neck squamous cell carcinoma were used: (1) the human papillomavirus (HPV)-positive mEER tumor model, featuring murine pharyngeal epithelial cells transformed with HPV16 E6 and E7 oncogenes and H-ras, and (2) HPV-ve, the carcinogen induced Mouse Oral Cancer 2 (MOC2) tumor model.
(§2) Test mice (n=4 for each model) were first subjected to preoperative MRI scans to establish presence of the tumor. Following MRI confirmation, tumor-bearing mice were administered XW-03-66 (dose=5 mg/kg) by tail vein injection. For comparison, a similar number of mice with MRI-confirmed tumors were injected with clinically approved ICG at a similar dose. To monitor dynamics of tumor uptake, NIR-II images were collected at different time intervals over a period of seven days.

[2] = in PBS; cited from earlier work
[3] = Optical properties (absorption, emission, quantum yield, solution) in PBS; type: physicochemical; details: PBS (50 μM)
[4] = target: serum albumin (Homo sapiens, UniProt P02768); details: binding with serum albumin in solution; cited from earlier work
[5] = in 20 minutes post-intravenous injection; cited from earlier work
[6] = test system: HPV-positive mEER tumor; test: In vivo NIR-II tumor imaging, mEER tumor model; parameters: species or system mouse; details: mEER tumor bearing mice, i.v., 5 mg/kg or similar dose
Text: as §1, §2

[7] = Photostability under continuous laser excitation in PBS and bovine plasma; type: physicochemical

serum albumin, sequence (P02768 25-609): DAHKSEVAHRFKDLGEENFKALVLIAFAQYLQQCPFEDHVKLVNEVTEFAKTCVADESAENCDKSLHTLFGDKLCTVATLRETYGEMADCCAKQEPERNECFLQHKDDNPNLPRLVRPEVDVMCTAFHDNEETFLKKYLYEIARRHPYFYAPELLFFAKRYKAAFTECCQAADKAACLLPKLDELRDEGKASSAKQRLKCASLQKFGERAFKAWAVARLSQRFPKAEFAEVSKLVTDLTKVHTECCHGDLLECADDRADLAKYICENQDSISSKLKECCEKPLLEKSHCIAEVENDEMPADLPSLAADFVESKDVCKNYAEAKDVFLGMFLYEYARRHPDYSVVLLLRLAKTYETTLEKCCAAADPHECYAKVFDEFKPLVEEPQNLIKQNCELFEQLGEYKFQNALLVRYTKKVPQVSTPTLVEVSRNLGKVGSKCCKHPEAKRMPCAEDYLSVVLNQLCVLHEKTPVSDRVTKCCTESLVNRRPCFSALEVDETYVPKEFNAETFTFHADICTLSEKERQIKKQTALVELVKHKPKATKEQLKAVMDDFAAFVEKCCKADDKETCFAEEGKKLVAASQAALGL

## CC1(C)C(/C=C/C=C/C=C/C=C2\N(CCCCS(=O)(=O)O)c3ccc4ccccc4c3C2(C)C)=[N+](CCCCS(=O)(=O)[O-])c2ccc3ccccc3c21 [ICG, indocyanine green]
[1]; MOC2 tumor bearing mice, i.v., 5 mg/kg or similar dose, 5 mg/kg
  NIR-II tumor signal: no signal uptake in either tumor model; also recorded: faint tumor signal at 1-2 h, and no apparent signal thereafter
[1]; tumor-bearing mice, model not distinguished
  liver signal: observed in the liver in images captured within the first four hours, but completely disappeared thereafter
[2]
  NIR-II QY: 0.042%
[3]
  dissolution in PBS: dissolve in PBS resulting in clear solutions
[4]
  factor of fluorescence increase compared to solution in PBS: 23
[5]
  fraction removed from circulation via the liver: 97%
[6]
  NIR-II tumor signal: no signal uptake in either tumor model; also recorded: faint tumor signals at 1-2 h, and no apparent signal thereafter
[7]
  time of drop in fluorescence to baseline: ≤ 30 min
